# Earlier results, collected in article PMC6698139 (Bioorganic & medicinal chemistry, 2019).
# Tested on: S1PR2
# Details: [33P]S1P competitive binding assay
compound,measurement,value
Cc1cc(C(=O)Cn2cc(C#N)ccc2=O)c(C)n1Cc1ccccc1 [CYM-5520],competition with S1P,not competitive
